The values below come from patent US20180049444A1, “XENORHABDUS SZENTIRMAII METABOLITES, TRANS-CINNAMIC ACID, AND ANALOGS THEREOF AS ENHANCERS OF FUNGICIDAL ACTIVITY” (priority 2016, published 2018).

The subject of experiment [1] is Venturia carpophila. The experiment in a line: Suppression of spore germination in potato dextrose broth with 10% bacterial supernatant or TCA. It is filed as cell-based. Particulars: V. carpophila. How it is done: (§1) The spores of V. carpophila and V. effusa were used to determine the inhibitory effect of the bacterial supernatants on germination. Supernatants tested were from X. nematophila, X. cabanillasii, X. bovienii, X. szentirmaii, strain 17C+E, P. temperate, P. luminescens (VS) and P. luminescens (K-22). The conidia suspension (0.1 ml) of V. effusa or V. carpophila was added to 0.8 ml potato dextrose broth (PDB) in 2 ml eppendorf tubes containing 0.1 ml (10% v/v) bacterial supernatant. Controls were PDB alone and conidial suspension without supernatant. Because TCA derived from Photorhabdus spp. was identified as an active compound with significant antifungal activity (Bock et al. 2014), TCA was added (1.27 mg/ml) in all experiments for comparison as well. The stock solution of TCA (99% purity, Sigma, St. Louis, Mo.) was prepared with 12.7 g dissolved in 100 ml ethanol (96%). Each treatment was replicated three times, and the experiment was repeated once on a different date. The tubes were incubated at 25° C. for 48 hours and the first 100 conidia were counted under the microscope (400×) to determine percentage spore germination (which was used to determine treatment effects). […] An inhibition rate was determined according to the formula: 100×[(the average percentage of spores germinated in the control−the average percentage of spores germinated in the treatment)/the average percentage of spores germinated in the control] (Fang et al. 2011). Analysis of Variance (ANOVA) (SAS V9.3, SAS Institute Inc., Cary, N.C.) was also applied to the data for V. carpophila.

Experiment [2] deals with V. effusa. The experiment is described as above. It is filed as cell-based, Venturia effusa. How it is done:
as §1, with “Each treatment was replicated three times, and the experiment was repeated once on a different date.” left out, “(Fang et al. 2011). Analysis of Variance (ANOVA) (SAS V9.3, SAS Institute Inc., Cary, N.C.) was also applied to the data for V. carpophila.” left out

Experiment [3] deals with Glomerella cingulata. Kind of experiment: Suppression of in vitro vegetative growth (colony area) on agar amended with 10% supernatant or TCA. Format: cell-based. Particulars: G. cingulata; FIG. 2; 7 days.
The subject of experiment [4] is Monilinia fructicola. The experiment is described as above. It is filed as cell-based. The following applies: M. fructicola; FIG. 3; 7 days.
For experiment [5], the system named is Venturia carpophila. The description is as above. The following applies: V. carpophila; FIG. 5; 7 days. It is filed as cell-based. The source says: (§2) Treatment effects were compared by measuring in vitro vegetative growth of the phytopathogens V. carpophila and V. effusa when exposed to the same bacterial exudates evaluated above in the germination study. Solutions of the fungicidal treatments were incorporated into PDA and autoclaved. Prior to autoclaving the PDA, the prescribed volume of distilled water was reduced to allow addition of treatment suspensions. Controls consisted of PDA without any amendment or PDA with acetone only (the solvent for TCA). The media were vortexed when cooled to 40-42° C. and poured to Petri dishes.
(§3) A 5 mm diameter mycelia plug from a fungal culture plate was transferred onto the center surface of each agar dish (Fang et al. 2011; Hazir et al. 2017a) and incubated at 25° C. Vegetative growth of the fungus was measured after 7 days. Growth was measured in two perpendicular directions to obtain the approximate area of the fungal mat.

Experiment [6] has as its system Venturia effusa. Described as above. It is filed as cell-based. Particulars: V. effusa; FIG. 4; 7 days.
Source text: as §2, §3

Experiment [7] relates to Monilinia fructicola (brown rot). The experiment in a line: Synergy assessment of TCA and trans-Cinnamaldehyde with commercial fungicides, growth area on PDA after 4 days. Format: cell-based. The following applies: FIG. 11. The source says:
Following the procedures above and those in Hazir et al (2017b, J. Invertebrate Path. 145: 1-8), synergy assessments were implemented to compare trans-Cinnamic acid to an exemplary analog, trans-Cinnamaldehyde. The target phytopathogen was Monilinia fructicola (brown rot). Treatment effects were compared by measuring vegetative growth of the phytopathogens in vitro when they were exposed to the fungicidal agents applied alone or in combination. Solutions of the fungicidal treatments were incorporated into potato dextrose agar (PDA) to achieve the desired concentrations, and autoclaved. Prior to autoclaving the PDA, the prescribed volume of distilled water was reduced to allow addition of the fungicide solutions. Controls consisted of PDA without any amendment or PDA with acetone only (the solvent used for TCA). Trans-Cinnamic acid and trans-Cinnamaldehyde were applied alone or with commercial fungicides […]® (extract of Reynoutria sachalinensis) or Serenade® (Bacillus subtilis). After 4 days the area of M. fructicola growth was determined. […] [table]

What is called inhibition is how much of the control response was suppressed. `O=C(O)/C=C/c1ccccc1` [TCA, trans-Cinnamic acid]: the percentage spore germination in experiment [1] (10% supernatant or TCA 1.27 mg/ml, 48 hours) is 8.66%. Moreover, the “level of suppression of spore germination compared among treatments” value in experiment [1] (FIG. 1) is “highest level of suppression”. The inhibition at 1270 µg/mL in experiment [1] (Venturia carpophila, 10% v/v supernatant or TCA 1.27 mg/ml, 48 hours at 25° C., read-out: Inhibition rate of spore germination (%)) was determined as 87.7%; in experiment [2] (Venturia effusa, 10% v/v supernatant or TCA 1.27 mg/ml, 48 hours at 25° C., read-out: Inhibition rate of spore germination (%)), 76.7%. The “percentage spore germination compared among treatments” value in experiment [2] was “the least”. Further, the “suppression of vegetative growth compared among treatments” value in experiment [3] is reported as “most suppression”; in experiment [4], “greatest suppression”; in experiment [5] it was “most suppression”; in experiment [6], “highest suppression”. For the same compound, the “Interaction (level of M. fructicola suppression) when combined with commercial fungicides such as Regalia and Serenade” value in experiment [7] is recorded as “synergistic”.

As for `O=C/C=C/c1ccccc1` [CA, trans-Cinnamaldehyde], in experiment [7], the “Interaction (level of M. fructicola suppression) when combined with commercial fungicides such as Regalia and Serenade” value is recorded as “synergistic”.
